Source: article PMC3183106 (Pharmacological research : the official journal of the …, 2011)
Where two headings read alike, the source gives them in different places.

How the values were obtained:
[1] = mean ± SEM
[2] = mean ± SEM; remark: listed apart in the source
[3] = cited from earlier work
[4] = cited from earlier work; remark: listed apart in the source
[5] = human, in vivo

In the case of `CSCCCCNC(=S)SC[C@H](N)C(=O)NCC(=O)O` [ERN-CG, ERN-cysteinylglycine], the “Percent of metabolite relative to total metabolites for respective ITC in urine” value ([1]; first 12 hrs after broccoli sprouts, GSTP1 A/A (n=7)) is reported as 0.11 ± 0.01%, the “Percent of metabolite relative to total metabolites for respective ITC in urine” value ([1]; first 12 hrs after broccoli sprouts, GSTP1 A/G (n=5)) is reported as 0.12 ± 0.04% and the “Percent of metabolite relative to total metabolites for respective ITC in urine” value ([1]; first 12 hrs after broccoli supplement, GSTP1 A/A (n=7)) is reported as 0.89 ± 0.31%. For the same compound, the “Percent of metabolite relative to total metabolites for respective ITC in urine” value ([1]; first 12 hrs after broccoli supplement, GSTP1 A/G (n=5)) was 2.00 ± 0.77%, the “Percent of metabolite relative to total for respective ITC in the plasma” value ([2]; 12 hrs after broccoli sprouts, GSTP1 A/A (n=7)) was 69.4 ± 1.38% and the “Percent of metabolite relative to total for respective ITC in the plasma” value ([2]; 12 hrs after broccoli sprouts, GSTP1 A/G (n=5)) was 67.6 ± 1.19%. For the same compound, the “Percent of metabolite relative to total for respective ITC in the plasma” value ([2]; 12 hrs after broccoli supplement, GSTP1 A/A (n=7)) was 72.9 ± 1.78% and the “Percent of metabolite relative to total for respective ITC in the plasma” value ([2]; 12 hrs after broccoli supplement, GSTP1 A/G (n=5)) was 75.1 ± 1.44%.
In the case of `CC(C)=CCC/C(C)=C/C=C/C(C)=C/C=C/C(C)=C/C=C/C=C(C)/C=C/C=C(C)/C=C/C=C(\C)CCC=C(C)C` [Lycopene], the “Increase in serum concentrations” value ([3]; heat processed tomato juice) is given as 2–3 fold and the “Change in serum concentrations” value ([3]; unprocessed tomato juice) is given as “no change”.
For `C[S+]([O-])CCCCN=C=S` (stereo not shown) [SFN, sulforaphane], the “SFN recovered after consumption” value ([4]; broccoli powder) is given as 19%, the “SFN recovered after consumption” value ([4]; broccoli sprouts) is given as 74% and the “Time by which total metabolites almost completely cleared from the plasma” value [5] is given as no more than 24 h.
